This passage reports Activity and IC50 results from ChEMBL document CHEMBL2040840, “New quinoline-5,8-dione and hydroxynaphthoquinone derivatives inhibit a chloroquine resistant Plasmodium falciparum strain” (Eur J Med Chem, 2012).

pIC50: −log10 of the molar value. Active and inactive are the calls of the source. No cut-off for these calls is given here.

Test [1] relates to Plasmodium falciparum. Kind of test: Antiplasmodial activity against Plasmodium falciparum NF54 infected in human erythrocytes after 72 hrs by geimsa staining. In kind it is functional, organism-based. The following applies: for pIC50: NF54, 72 h.
Test [2] has as its system Plasmodium falciparum. Kind of test: Antiplasmodial activity against Plasmodium falciparum NF54 infected in human erythrocytes assessed as decrease in parasitemia measured on day 4 post-treatment by geimsa staining (reference value: 3.28 +/- 0.11%). It counts as functional. Also on record: scale not given: the % may be the effect or the level left.
The subject of test [3] is Plasmodium falciparum. Briefly: Antiplasmodial activity against Plasmodium falciparum NF54 infected in human erythrocytes assessed as decrease in parasitemia measured on day 2 post-treatment by geimsa staining (reference value: 1.1 +/- 0.09%). Also on record: scale not given: the % may be the effect or the level left. It counts as functional.
For test [4], the system named is Plasmodium falciparum. Briefly: Antiplasmodial activity against Plasmodium falciparum NF54 infected in human erythrocytes assessed as decrease in parasitemia measured on day 3 post-treatment by geimsa staining (reference value: 2.18 +/- 0.17%). In kind it is functional. On the set-up: scale not given: the % may be the effect or the level left.
Test [5] relates to Plasmodium falciparum. Kind of test: Antiplasmodial activity against Plasmodium falciparum NF54 infected in human erythrocytes assessed as decrease in parasitemia measured on day 1 post-treatment by geimsa staining (reference value: 0.65 +/- 02%). It counts as functional. Also on record: scale not given: the % may be the effect or the level left.

As usually defined, the pIC50 is the negative decadic logarithm of the IC50, by convention in mol/L.

`Oc1c(Br)cc(Br)c2cccnc12`: the outcome in the test with Plasmodium falciparum [1] was inactive.
As for `Cc1ccc2c(n1)C(=O)C(Br)=C(NN1CCN(N)CC1)C2=O`, the Activity is 0% in the test with Plasmodium falciparum [2], 0.28% in the test with Plasmodium falciparum [3], 0.07% with Plasmodium falciparum [4] and 0.48% in the test on Plasmodium falciparum [5]. Besides, the pIC50 with Plasmodium falciparum [1] was 5.39.
`CCCc1ccc(-c2ccc(NC3=C(Br)C(=O)c4nc(C)ccc4C3=O)cc2)cc1`: the Activity came out at 0% with Plasmodium falciparum [2], 0.19% in the test on Plasmodium falciparum [3], 0.05% with Plasmodium falciparum [4] and 0.42% in the test on Plasmodium falciparum [5]. Further, the pIC50 in the test on Plasmodium falciparum [1] was 5.36.
In the case of `Cc1ccc2c(n1)C(=O)C(Br)=C(N1CCN(c3ccccc3)CC1)C2=O`, the Activity with Plasmodium falciparum [2] came out at 0%; in the test on Plasmodium falciparum [3], 0.29%; with Plasmodium falciparum [4], 0%; in the test on Plasmodium falciparum [5] it was 0.46%. Moreover, the negative logarithm of the IC50 (pIC50) in the test on Plasmodium falciparum [1] was 5.66.
On to `O=C1C(O)=C(N2CCN(c3ccccc3)CC2)C(=O)c2ccccc21`, for which the Activity is recorded as 0% in the test on Plasmodium falciparum [2], 0.26% in the test with Plasmodium falciparum [3], 0.03% with Plasmodium falciparum [4] and 0.5% with Plasmodium falciparum [5]. Further, the pIC50 in the test with Plasmodium falciparum [1] is 5.41.
Regarding `CCCc1ccc(-c2ccc(NC3=C(Br)C(=O)c4ncccc4C3=O)cc2)cc1`, in the test on Plasmodium falciparum [1], the pIC50 was 5.52.
Turning to `CCN(CC)CCCC(C)Nc1ccnc2cc(Cl)ccc12` (configuration not stated) [CHLOROQUINE], the Activity is 0% in the test with Plasmodium falciparum [2], 0% in the test on Plasmodium falciparum [3], 0% in the test on Plasmodium falciparum [4] and 0.06% in the test with Plasmodium falciparum [5].
Turning to `Cc1ccc2c(n1)C(=O)C=C(N1CCN(c3ccccc3)CC1)C2=O`, the Activity in the test on Plasmodium falciparum [2] is listed as 0%; with Plasmodium falciparum [3], 0.25%; in the test on Plasmodium falciparum [4], 0.04%; in the test on Plasmodium falciparum [5], 0.43%. This compound had a negative-log IC50 (pIC50) in the test with Plasmodium falciparum [1] of 5.40.
The matching figures for `Cc1ccc2c(n1)C(=O)C(Br)=C(NN1CCN(NC3=C(Br)C(=O)c4nc(C)ccc4C3=O)CC1)C2=O`: 0%, 0.49%, 0.05%, 0.65% and 5.41.
With `Cc1ccc2c(Br)cc(Br)c(O)c2n1` [BROQUINALDOL], in the test on Plasmodium falciparum [1], the pIC50 was 5.12.
